Active and inactive are the calls of the source. No cut-off for these calls is given here.
Legend:
[1] = test system: Replicase polyprotein 1ab (Severe acute respiratory syndrome coronavirus 2), P0DTD1 [UNDEFINED MUTATION]; experiment: Inhibition of recombinant SARS-COV2 main protease S46TMSK mutant expressed in Escherichia coli BL21 (DE3) using DABCYL-KTSAVLQSGFRKME-EDANS-NH2 as fluorogenic substrate at 5 to 50 uM preincubated for 10 mins followed by substrate addition by FRET assay; settings: dose 5-50 µM
[2] = test system: Replicase polyprotein 1ab (Severe acute respiratory syndrome coronavirus 2), P0DTD1 [UNDEFINED MUTATION]; experiment: Inhibition of recombinant SARS-COV2 main protease L50TMSK mutant expressed in Escherichia coli BL21 (DE3) using DABCYL-KTSAVLQSGFRKME-EDANS-NH2 as fluorogenic substrate at 5 to 50 uM preincubated for 10 mins followed by substrate addition by FRET assay; settings: dose 5-50 µM
[3] = test system: Replicase polyprotein 1ab (Severe acute respiratory syndrome coronavirus 2), P0DTD1 [UNDEFINED MUTATION]; experiment: Inhibition of recombinant SARS-COV2 main protease N72TMSK mutant expressed in Escherichia coli BL21 (DE3) using DABCYL-KTSAVLQSGFRKME-EDANS-NH2 as fluorogenic substrate at 5 to 50 uM preincubated for 10 mins followed by substrate addition by FRET assay; settings: dose 5-50 µM
[4] = test system: Replicase polyprotein 1ab (Severe acute respiratory syndrome coronavirus 2), P0DTD1 [UNDEFINED MUTATION]; experiment: Inhibition of recombinant SARS-COV2 main protease N142TMSK mutant expressed in Escherichia coli BL21 (DE3) using DABCYL-KTSAVLQSGFRKME-EDANS-NH2 as fluorogenic substrate at 5 to 50 uM preincubated for 10 mins followed by substrate addition by FRET assay; settings: dose 5-50 µM
[5] = test system: Replicase polyprotein 1ab (Severe acute respiratory syndrome coronavirus 2), P0DTD1 [UNDEFINED MUTATION]; experiment: Inhibition of recombinant SARS-COV2 main protease V186TMSK mutant expressed in Escherichia coli BL21 (DE3) using DABCYL-KTSAVLQSGFRKME-EDANS-NH2 as fluorogenic substrate at 5 to 50 uM preincubated for 10 mins followed by substrate addition by FRET assay; settings: dose 5-50 µM
[6] = test system: Replicase polyprotein 1ab (Severe acute respiratory syndrome coronavirus 2), P0DTD1 [UNDEFINED MUTATION]; experiment: Inhibition of recombinant SARS-COV2 main protease A191TMSK mutant expressed in Escherichia coli BL21 (DE3) using DABCYL-KTSAVLQSGFRKME-EDANS-NH2 as fluorogenic substrate at 5 to 50 uM preincubated for 10 mins followed by substrate addition by FRET assay; settings: dose 5-50 µM
[7] = test system: Replicase polyprotein 1ab (Severe acute respiratory syndrome coronavirus 2), P0DTD1 [UNDEFINED MUTATION]; experiment: Inhibition of recombinant SARS-COV2 main protease L232TMSK mutant expressed in Escherichia coli BL21 (DE3) using DABCYL-KTSAVLQSGFRKME-EDANS-NH2 as fluorogenic substrate at 5 to 50 uM preincubated for 10 mins followed by substrate addition by FRET assay; settings: dose 5-50 µM
[8] = test system: Replicase polyprotein 1ab (Severe acute respiratory syndrome coronavirus 2), P0DTD1 [UNDEFINED MUTATION]; experiment: Inhibition of recombinant SARS-COV2 main protease A255TMSK mutant expressed in Escherichia coli BL21 (DE3) using DABCYL-KTSAVLQSGFRKME-EDANS-NH2 as fluorogenic substrate at 5 to 50 uM preincubated for 10 mins followed by substrate addition by FRET assay; settings: dose 5-50 µM
[9] = test system: Replicase polyprotein 1ab (Severe acute respiratory syndrome coronavirus 2), P0DTD1 [S46A]; experiment: Inhibition of recombinant SARS-COV2 main protease S46A mutant expressed in Escherichia coli BL21 (DE3) using DABCYL-KTSAVLQSGFRKME-EDANS-NH2 as fluorogenic substrate at 16 to 100 nM preincubated for 10 mins followed by substrate addition by FRET assay; settings: dose 16-100 nM
[10] = test system: Replicase polyprotein 1ab (Severe acute respiratory syndrome coronavirus 2), P0DTD1 [L50A]; experiment: Inhibition of recombinant SARS-COV2 main protease L50A mutant expressed in Escherichia coli BL21 (DE3) using DABCYL-KTSAVLQSGFRKME-EDANS-NH2 as fluorogenic substrate at 16 to 100 nM preincubated for 10 mins followed by substrate addition by FRET assay; settings: dose 16-100 nM
[11] = test system: Replicase polyprotein 1ab (Severe acute respiratory syndrome coronavirus 2), P0DTD1 [N72A]; experiment: Inhibition of recombinant SARS-COV2 main protease N72A mutant expressed in Escherichia coli BL21 (DE3) using DABCYL-KTSAVLQSGFRKME-EDANS-NH2 as fluorogenic substrate at 16 to 100 nM preincubated for 10 mins followed by substrate addition by FRET assay; settings: dose 16-100 nM
[12] = test system: Replicase polyprotein 1ab (Severe acute respiratory syndrome coronavirus 2), P0DTD1 [N142A]; experiment: Inhibition of recombinant SARS-COV2 main protease N142A mutant expressed in Escherichia coli BL21 (DE3) using DABCYL-KTSAVLQSGFRKME-EDANS-NH2 as fluorogenic substrate at 16 to 100 nM preincubated for 10 mins followed by substrate addition by FRET assay; settings: dose 16-100 nM
[13] = test system: Replicase polyprotein 1ab (Severe acute respiratory syndrome coronavirus 2), P0DTD1 [V186A]; experiment: Inhibition of recombinant SARS-COV2 main protease V186A mutant expressed in Escherichia coli BL21 (DE3) using DABCYL-KTSAVLQSGFRKME-EDANS-NH2 as fluorogenic substrate at 16 to 100 nM preincubated for 10 mins followed by substrate addition by FRET assay; settings: dose 16-100 nM
[14] = test system: Replicase polyprotein 1ab (Severe acute respiratory syndrome coronavirus 2), P0DTD1 [UNDEFINED MUTATION]; experiment: Inhibition of recombinant SARS-COV2 main protease S46TMSK mutant expressed in Escherichia coli BL21 (DE3) using DABCYL-KTSAVLQSGFRKME-EDANS-NH2 as fluorogenic substrate at 16 to 1000 nM preincubated for 10 mins followed by substrate addition by FRET assay; settings: dose 16-1000 nM
[15] = test system: Replicase polyprotein 1ab (Severe acute respiratory syndrome coronavirus 2), P0DTD1 [UNDEFINED MUTATION]; experiment: Inhibition of recombinant SARS-COV2 main protease L50TMSK mutant expressed in Escherichia coli BL21 (DE3) using DABCYL-KTSAVLQSGFRKME-EDANS-NH2 as fluorogenic substrate at 16 to 1000 nM preincubated for 10 mins followed by substrate addition by FRET assay; settings: dose 16-1000 nM
[16] = test system: Replicase polyprotein 1ab (Severe acute respiratory syndrome coronavirus 2), P0DTD1 [UNDEFINED MUTATION]; experiment: Inhibition of recombinant SARS-COV2 main protease N72TMSK mutant expressed in Escherichia coli BL21 (DE3) using DABCYL-KTSAVLQSGFRKME-EDANS-NH2 as fluorogenic substrate at 16 to 1000 nM preincubated for 10 mins followed by substrate addition by FRET assay; settings: dose 16-1000 nM
[17] = test system: Replicase polyprotein 1ab (Severe acute respiratory syndrome coronavirus 2), P0DTD1 [UNDEFINED MUTATION]; experiment: Inhibition of recombinant SARS-COV2 main protease N142TMSK mutant expressed in Escherichia coli BL21 (DE3) using DABCYL-KTSAVLQSGFRKME-EDANS-NH2 as fluorogenic substrate at 16 to 1000 nM preincubated for 10 mins followed by substrate addition by FRET assay; settings: dose 16-1000 nM
[18] = test system: Replicase polyprotein 1ab (Severe acute respiratory syndrome coronavirus 2), P0DTD1 [UNDEFINED MUTATION]; experiment: Inhibition of recombinant SARS-COV2 main protease V186TMSK mutant expressed in Escherichia coli BL21 (DE3) using DABCYL-KTSAVLQSGFRKME-EDANS-NH2 as fluorogenic substrate at 16 to 1000 nM preincubated for 10 mins followed by substrate addition by FRET assay; settings: dose 16-1000 nM
[19] = test system: Replicase polyprotein 1ab (Severe acute respiratory syndrome coronavirus 2), P0DTD1 [UNDEFINED MUTATION]; experiment: Inhibition of recombinant SARS-COV2 main protease A255TMSK mutant expressed in Escherichia coli BL21 (DE3) using DABCYL-KTSAVLQSGFRKME-EDANS-NH2 as fluorogenic substrate at 16 to 1000 nM preincubated for 10 mins followed by substrate addition by FRET assay; settings: dose 16-1000 nM
[20] = test system: Replicase polyprotein 1ab (Severe acute respiratory syndrome coronavirus 2), P0DTD1 [N142L]; experiment: Inhibition of SARS-COV2 main protease N142L mutant assessed as fold increase in IC50
[21] = test system: Replicase polyprotein 1ab (Severe acute respiratory syndrome coronavirus 2), P0DTD1 [UNDEFINED MUTATION]; experiment: Activation of recombinant SARS-COV2 main protease V297TMSK mutant expressed in Escherichia coli BL21 (DE3) using DABCYL-KTSAVLQSGFRKME-EDANS-NH2 as fluorogenic substrate at 1.5 to 50 uM preincubated for 10 mins followed by substrate addition by FRET assay; settings: filed as activator, dose 1.5-50 µM
[22] = test system: Replicase polyprotein 1ab (Severe acute respiratory syndrome coronavirus 2), P0DTD1 [UNDEFINED MUTATION]; experiment: Activation of recombinant SARS-COV2 main protease V297TFAK mutant expressed in Escherichia coli BL21 (DE3) using DABCYL-KTSAVLQSGFRKME-EDANS-NH2 as fluorogenic substrate at 1.5 to 50 uM preincubated for 10 mins followed by substrate addition by FRET assay; settings: filed as activator, dose 1.5-50 µM
[23] = test system: Replicase polyprotein 1ab (Severe acute respiratory syndrome coronavirus 2), P0DTD1 [UNDEFINED MUTATION]; experiment: Activation of recombinant SARS-COV2 main protease I213TMSK mutant expressed in Escherichia coli BL21 (DE3) using DABCYL-KTSAVLQSGFRKME-EDANS-NH2 as fluorogenic substrate at 15 uM preincubated for 10 mins followed by substrate addition by FRET assay; settings: filed as activator
[24] = test system: Replicase polyprotein 1ab (Severe acute respiratory syndrome coronavirus 2), P0DTD1 [UNDEFINED MUTATION]; experiment: Activation of recombinant SARS-COV2 main protease I213TFAK mutant expressed in Escherichia coli BL21 (DE3) using DABCYL-KTSAVLQSGFRKME-EDANS-NH2 as fluorogenic substrate at 15 uM preincubated for 10 mins followed by substrate addition by FRET assay; settings: filed as activator

CCCC[C@@H](C=O)NC(=O)[C@H](CC(C)C)NC(=O)OCc1ccccc1
inhibition [1]: Dose-Dependent Effect | inhibition [2]: Dose-Dependent Effect | inhibition [3]: Dose-Dependent Effect | inhibition [4]: Dose-Dependent Effect | inhibition [5]: Dose-Dependent Effect | inhibition [6]: Dose-Dependent Effect | inhibition [7]: Dose-Dependent Effect | inhibition [8]: Dose-Dependent Effect

CC(=O)[C@@H]1CSCC(=O)N[C@H](Cc2ccc(O)cc2)C(=O)N[C@@H](CC(C)C)C(=O)N[C@@H](CCC(N)=O)C(=O)N[C@@H](Cc2ccc(O)cc2)C(=O)N[C@@H](C)C(=O)N[C@@H](C(C)C)C(=O)N[C@@H](CC(C)C)C(=O)N[C@@H](CCCNC(=N)N)C(=O)N[C@@H](Cc2c[nH]cn2)C(=O)N[C@@H](CCCCN)C(=O)N[C@@H](CCCNC(=N)N)C(=O)N[C@@H](CCCNC(=N)N)C(=O)N[C@@H](CCC(=O)O)C(=O)C1
inhibition [9]: Dose-Dependent Effect | inhibition [10]: Dose-Dependent Effect | inhibition [11]: Dose-Dependent Effect | inhibition [12]: Dose-Dependent Effect | inhibition [13]: Dose-Dependent Effect | inhibition [14]: Dose-Dependent Effect | inhibition [15]: Dose-Dependent Effect | inhibition [16]: Dose-Dependent Effect | inhibition [17]: Dose-Dependent Effect | inhibition [18]: Dose-Dependent Effect | inhibition [19]: Dose-Dependent Effect | fold change (FC) [20]: 5

CCOc1cc2ncc(C#N)c(Nc3ccc(F)c(Cl)c3)c2cc1NC(=O)/C=C/CN(C)C [PELITINIB]
Activity [21]: Dose-Dependent Effect | Activity [22]: Dose-Dependent Effect | Activity [23]: Active | Activity [24]: Active

Reference: ChEMBL document CHEMBL5380815, “Probing Ligand Binding Sites on Large Proteins by Nuclear Magnetic Resonance Spectroscopy of Genetically Encoded Non-Canonical Amino Acids” (J Med Chem, 2023)
